One data set has as its system Glut4. As to the kind of experiment: QRT-PCR of Glut4 mRNA in AML-12 cells. It counts as cell-based, mouse. Here is the method:
For RNA analysis of basal Glut4 (Slc2a4) expression (in the absence of diabetic stimuli 8-CPT/Dex), amplified AML-12 cells were cultured on 24-well (1×10^5 cells/well) plates overnight in 10% FBS ITS- and Dex-free DMEM/F12 media. These cells were washed twice with PBS to remove residual sera and then were incubated with vehicle (0.024% DMSO) or with Compound #43 (300 ppb) in serum-free DMEM/F12 media for 24 hours.
For RNA analysis of Glut4 expression in AML-12 cells cultured under simulated diabetic conditions, amplified AML-12 cells were cultured on 24-well (2×10^5 cells/well) plates in 10% FBS ITS- and Dex-free DMEM/F12 media overnight. Then these cells were washed twice with PBS to remove any potential residual sera and then were serum-starved in plain DMEM/F12 media overnight. These serum-starved AML-12 cells were then incubated with vehicle (0.024% DMSO) or with Compound #43 (300 ppb) in the presence of diabetic stimuli, 0.1 mM 8-CPT (Sigma) and 0.5 μM Dex, in serum-free plain DMEM/F12 media for 6 and 24 hours.
Total liver RNA from saline- or Compound #43-treated Lepr^db/db mice was isolated using a Qiagen RNAeasy RNA isolation kit according to the Manufacturer's protocol. Total RNA from cultured cells was isolated using Trizol (Invitrogen) according to the manufacturer's protocol, and then incubated with DNase I to remove any potential contaminating genomic DNA. […]

In data set [1] the test system is differentiated C2C12 cells. As to the kind of experiment: Glucose uptake in differentiated C2C12 (skeletal muscle) cells. It counts as cell-based, mouse. As for the experimental part:
The mouse myoblast C2C12 cells were purchased from the American Type Culture Collection (ATCC, Manassas, Va.). These cells were amplified in DMEM media supplemented with 10% FBS. Equal number of C2C12 cells were then seeded on 96-well plates (5000 cells/well) and cultured in 10% FBS DMEM media at 37° C. for 5 days. Cells were replenished daily with fresh 10% FBS DMEM media. At day 5 of culture, C2C12 cells were differentiated using 0.5% horse serum (Sigma)-containing DMEM media (differentiation media) continuing for 7 days with daily replacement of fresh differentiation media, as previously described (Misu et al, Cell Metabolism 12, 483-495, 2010). At day 7 post-differentiation, differentiated C2C12 cells were rinsed with PBS twice and pretreated without or with 0.006% DMSO (Compound #43 solvent) or Compound #43 (300 or 600 ppb) in serum-free glucose-free DMEM media overnight. Then these cells were washed once with PBS, and then treated without (basal) or with insulin (200 nM), Compound #43 (300 and 600 ppb), or both insulin and Compound #43 in glucose/phenol red-free DMEM media at 37° C. for 1.5 hr. After treatment, media was removed and cells were washed once with PBS and incubated with 1 mM 2-deoxyglucose (2DG) at room temperature for 30 min. […] Luminescent signals were recorded using a Bio-Tek luminometer.

For data set [2], the system named is G6PC. As to the kind of experiment: QRT-PCR of G6PC expression in HepG2 cells. The note with it: 100 nM insulin or 600 ppb Compound #43, serum-free, 40 hr (FIG. 10B). It counts as cell-based, human. Here is the method: (§1) For RNA analysis of basal G6pc expression (without the presence of diabetic stimuli: 8-CPT/Dex), amplified AML-12 and HepG2 cells were cultured on 24-well plates (0.5-2×10^5 cells/well) overnight in 10% FBS ITS- and Dex-free DMEM/F12 media and 10% FBS EMEM media, respectively. These cells were rinsed twice with PBS to remove residual sera. Then, the PBS-washed HepG2 cells were treated without or with insulin or Compound #43 in serum-free EMEM media for 40 hr. In some experiments, the PBS-washed AML-12 cells were incubated without or with Compound #43 or other selenium compounds in serum-free DMEM/F12 media for 24 hours. In other experiments, amplified AML-12 cells were pretreated without or with Compound #43 (150 or 300 ppb) in 10% FBS but ITS/Dex-free DMEM/F12 media for 24 hr. After 24 hr treatment, AML-12 cells were washed twice with PBS (to remove any residual serum in the culture) and then treated with insulin, Compound #43 or both, in the serum-free DMEM/Dex media for 6 hr.
Total RNA from saline- or selenium compound-treated Lepr^db/db mice was isolated using a Qiagen RNAeasy RNA isolation kit according to the Manufacturer's protocol. Total RNA from cultured cells was isolated using Trizol (Invitrogen) according to the manufacturer's protocol, and then incubated with DNase I to remove any potential contaminating genomic DNA. […]

Data set [3] in a line: Body weight, gross morphology and walking behavior of treated Lepr^db/db mice. It is filed as in vivo. As for the experimental part: Body weights of the above treated mice were recorded daily using a balance and any visible abnormal animal gross morphology and walking behavior were monitored daily. After the treatments, animals were fasted overnight and then subjected to blood glucose or HbA1c assays, glucose tolerance tests or tissue collections.
After the treatments for 43 days, animals were fasted overnight and then subjected to blood glucose and glucose tolerance tests. After daily treatments of these compounds for 90 days, sera from these animals were collected and then subjected to blood HbA1c assays.

Data set [4] concerns G6pc. As to the kind of experiment: QRT-PCR of basal G6pc expression in AML-12 cells. It counts as cell-based, mouse. As for the experimental part:
as §1
Total RNA from saline- or selenium compound-treated Lepr^db/db mice was isolated using a Qiagen RNAeasy RNA isolation kit according to the Manufacturer's protocol. Total RNA from cultured cells was isolated using Trizol (Invitrogen) according to the manufacturer's protocol, and then incubated with DNase I to remove any potential contaminating genomic DNA. RNA samples were subjected to real-time PCR (QRT-PCR) analysis using Applied-Bioscience's RT kit and predesigned Taqman probes (Invitrogen), as described previously (Lan et al EMBO J 2003). Data were normalized by Actin B (Actb) mRNA levels in each sample, and are presented as mean±SEM of 3-5 samples.

Regarding `C[Se]C[C@H]1O[C@@H](n2cnc3c(N)ncnc32)C(OC(C)=O)C1OC(C)=O` (stereo partly shown) [Compound #43, Adenosine, 5′-Se-methyl-5′-selino-, 2′,3′-diacetate], the “effect on Glut4 mRNA expression” value in the data set with Glut4 (300 ppb with 8-CPT/Dex, 6 and 24 hours (FIG. 16B)) is “significant increase in Glut4 mRNA expression”. Besides, the “increase of basal Glut4 mRNA expression” value with Glut4 (300 ppb, serum-free, 24 hours (FIG. 16A)) is “about 2.1 fold”. Further, the “increase in glucose uptake” value in data set [1] (co-treatment insulin 200 nM and Compound #43 300 ppb) was 63%. In data set [1] (co-treatment insulin 200 nM and Compound #43 600 ppb), the “increase of glucose uptake” value worked out at 79%. Also, the “effect on G6PC expression” value with G6PC [2] was “significantly attenuated”. In addition, the “overt toxic effects (morphology, walking behavior, body weight)” value in data set [3] (25 μg selenium or sulfur/kg ip daily, 3 months) is “no overt toxic effects”; in data set [3] (25 μg selenium/kg ip daily, 90 days, from 41 days of age), “no overt toxic effects”. Also, in data set [3] (acute single ip injection, 0.0054-5.4 mg/kg), the “visible toxic effects on gross morphological and walking behavior” value is “did not cause any visible toxic effects”. In addition, the “effect on G6pc expression” value in the data set with G6pc [4] (150 and 300 ppb, 24 hr pretreatment then 6 hr retreatment (FIG. 10C)) is listed as “significant decrease of G6pc expression with the decrease levels comparable to 10 nM insulin”. Moreover, the “decrease of G6pc expression vs Control” value in the data set with G6pc [4] (300 ppb selenium (3.8 μM of each compound), serum-free, 24 hr (FIG. 10A)) is listed as roughly 60%. Moreover, the “decrease in G6pc mRNA levels vs either agent alone” value in the data set with G6pc [4] (pretreatment then co-treatment with 10 nM insulin, 6 hr (FIG. 10C)) was “more pronounced”.
For “insulin: insulin purchased from Sigma, positive control”, the “effect on G6PC expression” value with G6PC [2] is reported as “significant decrease of G6PC expression”. In addition, the “decrease of G6pc mRNA levels vs Control” value in the data set on G6pc [4] (10 nM insulin, serum-free, 6 hr (FIG. 10C)) is “about 65%”.

Values taken from patent publication US11613552B2, “Pharmaceutical agents, compositions, and methods relating thereto” (Alltech, Inc., priority 2017, dated 2023).
